Results: patent US20230416782A1, “ENHANCED NANOPARTICLE DELIVERY SYSTEMS” (Children's Hospital Medical Center, priority 2020, published 2023)

Experiments:
HeLa cells = experiment: luciferase DNP transfection of HeLa cells with drug given before, with or after the DNPs (luciferase activity, light-based assay); format: cell-based; conditions: drug four hours before, at the same time as, or four hours after luciferase DNPs, versus DNP alone
Procedure: HeLa cells were transfected with luciferase DNPs either four hours after cells were treated with drug, at the same time as cells were treated with drug, or four hours before cells were treated with drug; DNP alone, RX001 (roscovitine), RX011 (spermine), and RX008 (ruxolitinib).
HeLa cells were transfected with luciferase DNPs either four hours after cells were treated with drug, at the same time as cells were treated with drug, or four hours before cells were treated with drug, DNP alone, RX012 (doxorubicin), RX013 (acetohexamide), and RX014 (sildenafil citrate).
FIG. 12. […] HeLa cell were treated for four hours prior to luciferase DNP administration. Drugs were obtained from a blinded plate. Labels on graphs indicate drugs position on blinded plate. *: p<0.05, **: p<0.01, ***: p<0.001, ***: p<0.0001, compared to DNP Alone group.
(§1) FIG. 17 depicts pharmacological manipulations before, after, and during DNP transfection. Hela cells were given roscovitine (1 μM, CDK1 inhibitor), spermine (1 μM, CKII activator), or ruxolitinib (0.1 μM, JAK inhibitor) at various times during transfection of luciferase DNPs. A. Hela cells were dosed with drugs for 4 hours, washed, and then given luciferase DNPs for 24 hours. B. Hela cells were simultaneously given drug and luciferase DNPs for 24 hr. C. Hela cells were given luciferase DNPs for 4 hours, washed, and then given drug for 24 hr. All cells were then lysed and analyzed for luciferase activity with a light-based assay. (n=8 for each group, signifies p<0.05 and signifies p<0.001).
as §1, with “Hela” for “FIG. 17 depicts pharmacological manipulations before, after, and during DNP transfection. Hela”, “group, mean and SEM shown,” for “group,”, “p<0.001)” for “p<0.001).”

[1] = test system: luciferase DNP gene transfer; experiment: in vivo luciferase DNP gene transfer, drug dosed 2 hours before intratracheal DNP (BLI total photons and lung luciferase activity); conditions: for enhancement of in vivo DNP transfection over time (BLI): 2, 3, 7 and 14 days after DNP; for enhancement of in vivo DNP transfection over time (BLI) / DNP gene delivery efficacy in vivo (BLI total photons and lung luciferase activity): roscovitine 10 mg/kg, spermine 20 mg/kg, ruxolitinib 1 mg/kg, 2 hours prior to intratracheal 100 μg luciferase DNP; for DNP gene delivery efficacy in vivo (BLI total photons and lung luciferase activity): 14 days post DNP administration; for luciferase gene transfer in vivo, Bioluminescent Image (BLI) analysis: day 2, day 3, day 7 and day 14, compared to DNP Alone group; for total photons over a 10 min BLI exposure from the chest ROI, difference from the DNP alone group: day 14 after DNP, spermine 20 mg/kg (P<0.5), roscovitine 10 mg/kg (p<0.01), dosed 2 hours prior to intratracheal 100 μg luciferase DNP; for luciferase gene transfer in vivo, BLI image analysis and luciferase activity assay: versus DNP alone
Procedure: Total photon measurements were taken from the chest of each mouse, ROI outlined in red, and background luminescence was subtracted from mice saline control mice (not shown). B. Total photons collected over a 10 min BLI exposure from the ROI at each day.
All data was collected 14 days post DNP administration. […] The ROI, outlined in red, was consistently drawn on each mouse and used to quantify total photons in each mouse. B. Total photons collected over a 10 min BLI exposure from the ROI. Mice that received saline instead of DNPs (not shown) were used to subtract background from the experimental mice. […] Lungs from mice used in B were harvested immediately after BLI imaging and assayed for luciferase activity. (n>10 for each group, p<0.05, p<0.01, p<0.001)
All data was collected 14 days post DNP administration. […] The ROI, outlined in red, was consistently drawn on each mouse and used to quantify total photons in each mouse. B. Total photons collected over a 10 min BLI exposure from the ROI. Mice that received saline instead of DNPs (not shown) were used to subtract background from the experimental mice. […] Lungs from mice used in B were harvested immediately after BLI imaging and assayed for luciferase activity. (n>10 for each group, mean and SEM shown, p<0.05, p<0.01, p<0.001)

hCFTR gene transfer = experiment: in vivo hCFTR gene transfer by DNP with drug (CFTR expression, PCR); set-up: species or system mice; conditions: 2, 4 and 7 days post-DNP administration; versus DNP alone
Excerpt: FIG. 16. Gene transfer of hCFTR is enhanced by pharmacologic manipulation of interactome proteins. DMP alone, RX001 (roscovitine), and RX008 (ruxolitinib), 2 days post-DNP administration, 4 days post-DNP administration and 7 days post-DNP administration.
FIG. 22. CFTR Expression comparison between NHBE cells (normal human bronchial/tracheal epithelial cells), Untreated Mice and Day 2 DNP Treated Mice, and CFTR Expression comparison in Day 4 mice treated with a vehicle (DNP Alone) or drug. Day 4 data represents vector subtracted values for the PCR of CFTR.

SMILES | gene transfer of luciferase in vitro (HeLa cells) | enhancement of in vivo DNP transfection over time (BLI) [1] | DNP gene delivery efficacy in vivo (BLI total photons and lung luciferase activity) [1] | luciferase gene transfer in vivo, Bioluminescent Image (BLI) analysis [1] | total photons over a 10 min BLI exposure from the chest ROI, difference from the DNP alone group [1] | luciferase gene transfer in vivo, BLI image analysis and luciferase activity assay [1] | gene transfer of hCFTR (hCFTR gene transfer)
NCCCNCCCCNCCCN [RX011, Spermine] | enhanced | maintained over time | enhancement | enhances | significantly different | enhances | –
CC[C@H](CO)Nc1nc(NCc2ccccc2)c2ncn(C(C)C)c2n1 [RX001, Roscovitine] | enhanced | maintained over time | enhancement | enhances | significantly different | enhances | enhanced
COc1cccc2c1C(=O)c1c(O)c3c(c(O)c1C2=O)C[C@@](O)(C(=O)CO)C[C@@H]3O[C@H]1C[C@H](N)[C@H](O)[C@H](C)O1 [RX012, Doxorubicin] | enhanced | – | – | – | – | – | –
CCCc1nn(C)c2c(=O)nc(-c3cc(S(=O)(=O)N4CCN(C)CC4)ccc3OCC)[nH]c12 [RX014, Sildenafil] | enhanced | – | – | – | – | – | –
N#CC[C@H](C1CCCC1)n1cc(-c2ncnc3[nH]ccc23)cn1 [RX008, Ruxolitinib] | enhanced | maintained over time | enhancement | enhances | – | enhances | enhanced
CC(=O)c1ccc(S(=O)(=O)NC(=O)NC2CCCCC2)cc1 [RX013, Acetohexamide] | enhanced | – | – | – | – | – | –
